These results are taken from publication PMC9913351, “Computational Approach to Drug Penetration across the Blood-Brain and Blood-Milk Barrier Using Chromatographic Descriptors” (Cells, 2023).

Data set [1] in a line: HPLC on immobilized artificial membrane column (HPLC-IAM). As to conditions: for log kIAM: logarithm of retention factor, mobile phase pH 7.4; for kIAM: retention factor, phosphate buffer pH 7.4/acetonitrile 80:20. The data set is classed as physicochemical.
Data set [2] deals with T1, bovine serum albumin BSA (Bos taurus, UniProt P02769).
T1 construct: purchased Sigma Aldrich
Kind of data set: NP TLC on silica gel plates impregnated with bovine serum albumin. Format: in vitro ADME. As to conditions: for NP/C: Rf from BSA-modified NP plate / Rf from clear one (control); for NP: Rf value from NP plate impregnated with 2 mg/mL BSA solution, mobile phase pH 7.4.

Data set [3] has as its target T2, human serum albumin HSA (Homo sapiens, UniProt P02768).
T2 construct: 4 × 10 mm
Kind of data set: HPLC on immobilized human serum albumin column (HPLC-HSA). Format: in vitro ADME. As to conditions: for log kHSA: logarithm of retention factor, mobile phase pH 7.4; for kHSA: retention factor, acetate buffer pH 7.4/acetonitrile/methanol 85:10:5.

Data set [4] concerns the target T1, bovine serum albumin BSA. Kind of data set: RP TLC on silanized RP-2 plates impregnated with bovine serum albumin. As to conditions: for RP/C: Rf from BSA-modified RP-2 plate / Rf from clear one (control); for RP: Rf value from RP plate impregnated with 2 mg/mL BSA solution, mobile phase pH 7.4. The data set is classed as in vitro ADME.
On the set-up of data set [5]: method as in earlier work. Conditions: code describing the acid-base properties; source Chembl; cited from earlier work.
A short description of data set [6]: NP TLC on unimpregnated control plate. The data set is classed as physicochemical. Conditions: Rf value from unimpregnated NP plate (control); mobile phase pH 7.4.
Data set [7] can be described thus: RP TLC on unimpregnated RP-2 control plate. Format: physicochemical. As to conditions: Rf value from unimpregnated RP plate (control); mobile phase pH 7.4.
For data set [8] the following is noted: ratio of drug concentration in milk and plasma; cited from earlier work.
Wherever a/b/n code is given: key: (-1) - acids; (0) - neutrals; (1) - bases.

T1 sequence (P02769 25-607): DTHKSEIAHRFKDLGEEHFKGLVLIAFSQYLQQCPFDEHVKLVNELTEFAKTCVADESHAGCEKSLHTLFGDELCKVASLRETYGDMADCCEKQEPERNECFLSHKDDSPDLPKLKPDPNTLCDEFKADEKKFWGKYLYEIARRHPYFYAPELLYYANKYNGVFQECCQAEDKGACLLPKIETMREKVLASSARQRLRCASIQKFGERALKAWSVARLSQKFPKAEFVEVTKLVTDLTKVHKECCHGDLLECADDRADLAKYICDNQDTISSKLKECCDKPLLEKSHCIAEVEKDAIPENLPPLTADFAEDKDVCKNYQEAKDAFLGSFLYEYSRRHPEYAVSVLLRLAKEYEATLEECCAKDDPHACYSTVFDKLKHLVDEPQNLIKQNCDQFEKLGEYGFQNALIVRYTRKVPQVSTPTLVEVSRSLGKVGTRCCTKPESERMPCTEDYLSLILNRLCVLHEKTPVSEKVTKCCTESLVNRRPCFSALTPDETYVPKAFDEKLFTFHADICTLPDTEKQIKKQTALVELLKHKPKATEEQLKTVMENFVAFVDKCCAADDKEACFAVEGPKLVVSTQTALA
T2 sequence (P02768 25-609): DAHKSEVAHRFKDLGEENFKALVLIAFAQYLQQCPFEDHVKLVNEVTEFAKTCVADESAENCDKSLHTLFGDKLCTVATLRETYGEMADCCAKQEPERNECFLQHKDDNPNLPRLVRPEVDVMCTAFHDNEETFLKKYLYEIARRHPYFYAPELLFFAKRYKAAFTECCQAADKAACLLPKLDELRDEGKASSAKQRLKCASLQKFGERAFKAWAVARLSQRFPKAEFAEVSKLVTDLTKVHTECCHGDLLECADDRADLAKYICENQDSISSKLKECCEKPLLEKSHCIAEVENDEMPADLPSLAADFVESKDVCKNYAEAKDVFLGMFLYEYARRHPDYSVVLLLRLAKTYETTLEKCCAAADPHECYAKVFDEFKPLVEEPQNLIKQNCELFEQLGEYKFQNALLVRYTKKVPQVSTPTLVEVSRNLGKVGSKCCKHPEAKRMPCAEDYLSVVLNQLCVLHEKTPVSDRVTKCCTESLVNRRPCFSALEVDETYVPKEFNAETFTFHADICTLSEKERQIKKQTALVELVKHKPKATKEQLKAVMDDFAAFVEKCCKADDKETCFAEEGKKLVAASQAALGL

For `CC[C@@H](CO)NCCN[C@@H](CC)CO` [ethambutol], in data set [1], the “log kIAM” value is on record as 0.34 and the kIAM is listed as 2.18. In data set [2], the NP/C is reported as 1.11 and the NP amounted to 0.21. Further, in data set [3], the “log kHSA” value was 0.24 and the kHSA is given as 1.73. Further, in data set [4], the RP/C was 0.98 and the RP came out at 0.95. For the same compound, the a/b/n code in data set [5] was 1. The compound further came in with a CNP in data set [6] of 0.19. This compound displayed a CRP in data set [7] of 0.97.
Take `CCC(C)n1ncn(-c2ccc(N3CCN(c4ccc(OCC5COC(Cn6cncn6)(c6ccc(Cl)cc6Cl)O5)cc4)CC3)cc2)c1=O` (stereo not drawn) [itraconazole]: in data set [1], the “log kIAM” value is reported as 0.79 and the kIAM was 6.15. Also, in data set [2], the NP/C was found to be 1.01 and the NP is given as 0.97. In data set [3], the “log kHSA” value is 0.98 and the kHSA was determined as 9.65. In data set [4], this compound returned an RP/C of 0.98 and an RP of 0.84. For the same compound, in data set [5], the a/b/n code is on record as 0. Besides, the CNP in data set [6] turned out to be 0.96. Besides, the CRP in data set [7] came to 0.86.
Take `O=C(c1ccccc1)c1ccc2n1CCC2C(=O)O` (stereo not drawn) [ketorolac]: in data set [1], the “log kIAM” value stood at 0.38 and the kIAM amounted to 2.39. Moreover, in data set [2], the NP/C stood at 0.99 and the NP is recorded as 0.91. Also, in data set [3], the “log kHSA” value was 0.98 and the kHSA is given as 9.65. In data set [4], this compound showed an RP/C of 1.00 and an RP of 0.96. Further, the a/b/n code in data set [5] is listed as -1. The compound also came in with a CNP in data set [6] of 0.92. The compound also registered a CRP in data set [7] of 0.96.
Regarding `CC[C@@H](C(N)=O)N1CCCC1=O` [levetiracetam], in data set [1], the “log kIAM” value is recorded as 0.21 and the kIAM came to 1.62. Besides, in data set [2], the NP/C worked out at 1.00 and the NP was determined as 0.92. Further, in data set [3], the “log kHSA” value is recorded as -1.16 and the kHSA was 0.07. Further, in data set [4], the RP/C amounted to 1.00 and the RP is recorded as 0.92. In data set [5], the a/b/n code is on record as 0. This compound also showed a CNP in data set [6] of 0.92. The CRP in data set [7] was 0.92.
Turning to `CCOC(=O)C1=C(C)NC(C)=C(C(=O)OC)C1c1cccc([N+](=O)[O-])c1` (stereo not drawn) [nitrendipine], in data set [1], the “log kIAM” value was determined as 0.47 and the kIAM was 2.98. In data set [2], this compound showed an NP/C of 1.00 and an NP of 0.97. For the same compound, in data set [3], the “log kHSA” value was found to be 0.55 and the kHSA turned out to be 3.55. In addition, in data set [4], the RP/C was 1.00 and the RP is 0.86. The a/b/n code in data set [5] was 0. This compound also had a CNP in data set [6] of 0.97. This compound displayed a CRP in data set [7] of 0.86.
Take `CCC1(c2ccccc2)C(=O)NCNC1=O` [primidone]: in data set [1], the “log kIAM” value came to 0.31 and the kIAM amounted to 2.02. For the same compound, in data set [2], the NP/C was determined as 1.03 and the NP is listed as 0.93. Also, in data set [3], the “log kHSA” value is given as -0.66 and the kHSA is given as 0.22. Moreover, in data set [4], the RP/C is listed as 1.04 and the RP was determined as 0.97. Also, the a/b/n code in data set [5] was 0. In data set [6], this compound came in with a CNP of 0.90. The CRP in data set [7] turned out to be 0.93.
As for `CC(N)C12CC3CC(CC(C3)C1)C2` (stereo not drawn) [rimantadine], in data set [1], the “log kIAM” value is reported as 0.28 and the kIAM was found to be 1.91. In data set [2], the NP/C was found to be 1.00 and the NP is reported as 0.92. In addition, in data set [3], the “log kHSA” value was -0.80 and the kHSA was determined as 0.16. Also, in data set [4], the RP/C worked out at 1.00 and the RP was found to be 0.95. Moreover, in data set [5], the a/b/n code is 1. The compound further showed a CNP in data set [6] of 0.92. This compound had a CRP in data set [7] of 0.95.
`CN[C@H]1CC[C@@H](c2ccc(Cl)c(Cl)c2)c2ccccc21` [sertraline]: the M/P ratio entry in data set [8] was “above 1”.
